Measured values: PMC9227536, “Prediction of Pharmacokinetics of IDP-73152 in Humans Using Physiologically-Based Pharmacokinetics” (Pharmaceutics, 2022)

How the values were obtained:
[1] = Unbound fraction in plasma (rapid equilibrium dialysis), rat; format: in vitro ADME; details: rats plasma, 0.3, 1, 3 μM, RED 5 h, read-out: fu,p
Protocol: The unbound fractions of IDP-73152 in various matrices were measured according to the manufacturer’s instructions for the rapid equilibrium dialysis (RED) device (ThermoFisher Scientific, Waltham, MA, USA). Briefly, IDP-73152 was added to the plasma or the microsomal/hepatocyte incubation buffer from various species (i.e., mouse, rat, dog, and human for microsomal incubation; rat for hepatocyte incubation) to obtain final concentrations of the compound at 0.3, 1, and 3 μM. After the membrane insert was placed in the RED plate, the solution containing IDP-73152 was added (400 µL) to the sample chamber, and the dialysis buffer (600 μL) was added to the buffer chamber. The RED plate was sealed with parafilm and then incubated at 37 °C in the orbital shaker (Lab Companion, Daejeon, Korea) at 100 rpm for 5 h. After a 50 μL aliquot was aspirated from both the sample and buffer chambers, an equal volume of protein-free buffer or blank medium was replaced in the aspirated sample or buffer to render the matrices compositionally identical. The IDP-73152 concentration in the buffer/sample chambers (i.e., CBuffer Chamber and CSample Chamber) was determined by an assay. Thus, the fraction unbound was defined as:(2) % Fraction unbound=(CBuffer Chamber/CSample Chamber)×100%

[2] = Metabolic stability in liver microsomes, dog; format: in vitro ADME
Protocol: In this study, the metabolic stability of IDP-73152 in microsomes from mice, rats, dogs, and humans, as well as rat hepatocytes, was determined. For a microsomal incubation study, the incubation mixtures, containing mouse, rat, dog, or human liver microsomes at a protein concentration of 0.5 mg/mL, 3.3 mM MgCl2, and 1.3 mM NADPH, in a 100 mM potassium phosphate buffer (pH 7.4), were preincubated for 3 min at 37 °C. In parallel, a control incubation mixture (i.e., identical composition to that of the incubation mixture without NADPH) was also prepared for comparison. The reaction was initiated by the addition of a 10 × solution of IDP-73152 (final concentration in mixtures of 1 μM) to the incubation mixtures or the control incubation mixtures. The mixtures were incubated in a shaking water bath (37 °C, 90 rpm). Aliquots (30 μL) were collected at 0, 15, 30, and 45 min from the mixture and the reaction was terminated by the addition of a 4-fold volume of ice-cold acetonitrile to the sample. The mixture was then vortexed for 5 min and centrifuged for 10 min at 10,000× g. The supernatant was collected and stored at -80 °C until the analysis. For the hepatocyte incubation study, rat hepatocytes were freshly prepared using the two-step collagenase perfusion method with slight modifications. After the isolation, cell viability during the preparation process was first determined by a trypan blue exclusion assay prior to the stability study. The preparation was considered adequate for subsequent studies if the viability was greater than 80%. When appropriate, the hepatocytes were resuspended in Williams' media E containing 10% fetal bovine serum, 1% penicillin-streptomycin, and 0.01% insulin-transferrin-selenium (i.e., 10 mg/mL insulin, 5.5 mg/mL transferrin, and 5 mg/mL selenium) at pH 7.4. The reaction was carried out with the hepatocyte suspension prepared at 1 × 10^6 cells/mL (0.5 mL) and initiated by the addition of equal volume of IDP-73152 solution (i.e., final concentration of the compound at 1 μM in 0.5 × 10^6 cells/mL of hepatocytes) to the hepatocyte suspension. […] Assuming first-order disappearance kinetics, the slope k of the logarithmically transformed IDP-73152 concentration in the sample versus time plot was determined by the linear regression analysis of the data. The total intrinsic clearance (CLint,mic, μL/min/mg protein for microsomal incubation study and CLint,hep, μL/min/million cells for hepatocytes incubation study) was then calculated using the following equations:(4) CLint, mic=k×Volume of incubation medium (μL)/Protein in incubation medium (mg) (5) CLint,hep=k×Volume of incubation (μL)/Number of cells in incubation (×10^6) The unbound intrinsic clearance, with respect to the whole liver ([…]), was then estimated for the two cases. […]

CC(C)(C)[C@H](NC(=O)[C@H](CC1CCCC1)CN(O)C=O)C(=O)N1CCC(NCc2cc(F)c(F)cc2F)CC1 [IDP-73152]
fraction unbound at 5 h [1]: 0.0582 ± 0.005 | CLhep predicted at 1 μM ([2]; dog, liver microsomes, pH 7.4, dogs, read-out: CLh calculated from the CLint,mic (converted)): 8.87 mL/min/kg | microsomal CLint at 1 μM ([2]; dog, pH 7.4, dogs liver microsomes 0.5 mg/mL, 1 μM, read-out: CLint,mic): 62.6 ± 2.4 µL/min/mg | hepatic ER (extraction ratio) ([2]; dogs, from microsomal clearance, well-stirred model): 0.106 ± 0.004 | CLu,int,H ([2]; dogs, scaled up to the whole liver from microsomes): 108 ± 4 L/h
